SMILES strings stand for the structures.

Experiment [1] addresses D(1B) dopamine receptor (Homo sapiens, UniProt P21918). In words: Displacement of [3H]SCH23390 from human dopamine D5 receptor expressed in HEK cells. The experiment is classed as cell-based, HEK293. In general terms: Loss of bound radioactivity is the signal in a displacement assay; it reports binding, not function.
In experiment [2] the target is D(3) dopamine receptor (Homo sapiens, UniProt P35462). In words: Displacement of [3H]spiperone from human dopamine D3 receptor expressed in CHO-K1 cells. Type of experiment: cell-based.
Chain of D(3) dopamine receptor (P35462 whole entry): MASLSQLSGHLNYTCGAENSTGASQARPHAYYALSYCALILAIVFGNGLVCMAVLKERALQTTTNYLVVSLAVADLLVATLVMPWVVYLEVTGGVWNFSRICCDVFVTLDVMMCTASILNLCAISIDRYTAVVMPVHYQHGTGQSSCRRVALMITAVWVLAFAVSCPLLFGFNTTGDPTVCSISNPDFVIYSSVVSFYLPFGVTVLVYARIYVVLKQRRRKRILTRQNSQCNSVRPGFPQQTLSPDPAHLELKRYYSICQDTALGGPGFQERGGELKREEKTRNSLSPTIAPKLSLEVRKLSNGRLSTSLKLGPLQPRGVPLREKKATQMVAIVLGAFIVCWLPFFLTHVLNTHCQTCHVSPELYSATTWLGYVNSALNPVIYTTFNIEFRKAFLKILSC
In experiment [3] the target is D(2) dopamine receptor (Homo sapiens, UniProt P14416). In words: Displacement of [3H]spiperone from human dopamine D2short receptor expressed in CHO-K1 cells. Type of experiment: cell-based.
Chain of D(2) dopamine receptor (P14416 whole entry): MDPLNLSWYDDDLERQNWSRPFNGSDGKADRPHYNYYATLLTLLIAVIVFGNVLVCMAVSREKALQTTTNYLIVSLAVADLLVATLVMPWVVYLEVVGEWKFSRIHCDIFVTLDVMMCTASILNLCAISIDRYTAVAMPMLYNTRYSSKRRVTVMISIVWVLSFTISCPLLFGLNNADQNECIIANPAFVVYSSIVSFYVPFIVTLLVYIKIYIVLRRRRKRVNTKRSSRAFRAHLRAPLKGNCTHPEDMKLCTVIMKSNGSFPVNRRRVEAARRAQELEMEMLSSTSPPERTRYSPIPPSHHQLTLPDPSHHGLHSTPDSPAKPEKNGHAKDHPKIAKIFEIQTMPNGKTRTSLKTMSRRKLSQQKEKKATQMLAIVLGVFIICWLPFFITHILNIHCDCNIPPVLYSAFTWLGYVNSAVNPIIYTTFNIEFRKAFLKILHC
Experiment [4] deals with D(1A) dopamine receptor (Homo sapiens, UniProt P21728). As to the kind of experiment: Displacement of [3H]SCH23390 from human dopamine D1 receptor expressed in HEK cells. Type of experiment: cell-based, HEK293.
Chain of D(1A) dopamine receptor (P21728 whole entry): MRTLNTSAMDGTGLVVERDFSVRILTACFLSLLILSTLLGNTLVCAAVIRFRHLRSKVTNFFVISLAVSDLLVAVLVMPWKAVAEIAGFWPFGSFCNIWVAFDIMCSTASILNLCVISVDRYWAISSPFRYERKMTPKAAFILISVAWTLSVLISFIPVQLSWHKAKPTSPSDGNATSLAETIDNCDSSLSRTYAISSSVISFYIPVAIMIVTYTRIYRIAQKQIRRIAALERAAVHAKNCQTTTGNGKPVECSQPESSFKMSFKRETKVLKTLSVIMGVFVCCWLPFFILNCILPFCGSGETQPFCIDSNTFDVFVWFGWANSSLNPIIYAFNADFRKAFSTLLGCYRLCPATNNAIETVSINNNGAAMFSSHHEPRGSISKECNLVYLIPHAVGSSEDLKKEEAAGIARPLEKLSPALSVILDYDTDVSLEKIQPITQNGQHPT
The target of experiment [5] is Histamine H4 receptor (Homo sapiens, UniProt Q9H3N8). In words: Displacement of [3H]histamine from human histamine H4 receptor expressed in Sf9 cells.
Chain of Histamine H4 receptor (Q9H3N8 whole entry): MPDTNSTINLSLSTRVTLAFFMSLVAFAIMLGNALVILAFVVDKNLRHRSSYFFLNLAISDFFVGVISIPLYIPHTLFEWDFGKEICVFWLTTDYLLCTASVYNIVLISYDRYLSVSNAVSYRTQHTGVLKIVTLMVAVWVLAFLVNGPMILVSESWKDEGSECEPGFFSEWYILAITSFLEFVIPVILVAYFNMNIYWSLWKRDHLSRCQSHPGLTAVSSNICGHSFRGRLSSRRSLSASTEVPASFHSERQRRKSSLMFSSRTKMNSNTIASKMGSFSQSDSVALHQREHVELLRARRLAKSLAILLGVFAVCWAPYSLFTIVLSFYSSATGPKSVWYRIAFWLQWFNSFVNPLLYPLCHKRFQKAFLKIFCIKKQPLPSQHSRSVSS
Experiment [6] concerns the target Histamine H1 receptor (Homo sapiens, UniProt P35367). As to the kind of experiment: Displacement of [3H]pyrilamine from human histamine H1 receptor expressed in CHO-K1 cells. The experiment is classed as cell-based.
The target in experiment [7] is Histamine H3 receptor (Homo sapiens, UniProt Q9Y5N1). In words: Displacement of [3H]Nalpha-methylhistamine from human recombinant histamine H3 receptor expressed in HEK-293 cells. The experiment is classed as cell-based, HEK293.
Chain of Histamine H3 receptor (Q9Y5N1 whole entry): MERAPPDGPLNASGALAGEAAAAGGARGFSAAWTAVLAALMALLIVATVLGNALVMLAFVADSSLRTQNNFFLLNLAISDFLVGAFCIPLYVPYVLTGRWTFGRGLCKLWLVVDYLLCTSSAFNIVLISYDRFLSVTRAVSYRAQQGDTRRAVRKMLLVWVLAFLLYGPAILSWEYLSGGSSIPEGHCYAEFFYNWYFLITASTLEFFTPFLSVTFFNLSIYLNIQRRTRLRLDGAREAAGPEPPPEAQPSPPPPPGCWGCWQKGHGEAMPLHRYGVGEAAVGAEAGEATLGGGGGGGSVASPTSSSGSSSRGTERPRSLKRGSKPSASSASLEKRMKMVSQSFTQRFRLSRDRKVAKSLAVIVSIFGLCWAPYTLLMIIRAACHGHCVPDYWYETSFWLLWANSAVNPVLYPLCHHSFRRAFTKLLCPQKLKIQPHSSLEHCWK

Chain of Histamine H1 receptor (P35367 whole entry): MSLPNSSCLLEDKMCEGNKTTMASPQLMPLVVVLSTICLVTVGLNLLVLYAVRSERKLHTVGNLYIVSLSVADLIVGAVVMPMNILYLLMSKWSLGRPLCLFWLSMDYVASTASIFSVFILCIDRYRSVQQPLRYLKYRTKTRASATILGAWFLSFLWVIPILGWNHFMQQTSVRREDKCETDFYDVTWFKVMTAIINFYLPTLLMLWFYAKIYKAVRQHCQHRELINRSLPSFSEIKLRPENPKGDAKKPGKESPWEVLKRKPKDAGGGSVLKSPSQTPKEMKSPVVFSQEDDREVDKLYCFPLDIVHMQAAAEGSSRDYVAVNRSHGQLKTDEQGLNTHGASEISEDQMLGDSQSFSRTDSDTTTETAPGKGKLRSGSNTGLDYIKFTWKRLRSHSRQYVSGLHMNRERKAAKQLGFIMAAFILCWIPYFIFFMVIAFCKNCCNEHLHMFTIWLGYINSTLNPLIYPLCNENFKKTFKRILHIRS
Chain of D(1B) dopamine receptor (P21918 whole entry): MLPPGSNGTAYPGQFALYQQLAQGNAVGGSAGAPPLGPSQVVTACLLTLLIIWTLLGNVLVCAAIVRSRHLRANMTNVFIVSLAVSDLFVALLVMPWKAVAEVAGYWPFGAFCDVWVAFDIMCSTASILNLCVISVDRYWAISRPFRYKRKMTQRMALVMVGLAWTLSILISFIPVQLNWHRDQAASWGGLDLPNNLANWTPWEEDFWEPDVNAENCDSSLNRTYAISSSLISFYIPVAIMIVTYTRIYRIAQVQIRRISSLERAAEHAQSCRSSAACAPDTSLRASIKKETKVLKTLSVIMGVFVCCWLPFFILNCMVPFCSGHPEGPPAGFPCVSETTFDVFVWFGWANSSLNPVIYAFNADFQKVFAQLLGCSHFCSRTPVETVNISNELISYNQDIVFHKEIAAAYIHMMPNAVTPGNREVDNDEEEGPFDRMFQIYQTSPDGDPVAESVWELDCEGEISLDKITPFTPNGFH

For the compound `CC1=CC(C)=[N+]2C1=C(c1ccc(OCCCN3CCCCC3)cc1)c1c(C)cc(C)n1[B-]2(F)F` [BODILISANT], the Ki turned out to be 5210 nM in experiment [1]; 1490 nM in experiment [2]; 1970 nM in experiment [3]; 12500 nM in experiment [4]; 7480 nM in experiment [5]; 1660 nM in experiment [6]. The Ki in experiment [7] came to 6.51 nM.

Broadly, the Ki is a measure of affinity in units of concentration, obtained from inhibition or displacement.
